The source made the active and inactive calls. No cut-off for these calls is given here.
Assays:
[1] = molecular target: T1, Apoptosis regulator Bcl-2 (Homo sapiens, UniProt P10415); test: Inhibition of GST fused Bcl-2 binding to biotinylated 16 mer Bak-BH3 peptide by HTRF-LANCE assay
[2] = molecular target: Bcl-2-like protein 1 (Bcl-xL) (Homo sapiens) (UniProt Q07817); test: Inhibition of GST fused Bcl-xL binding to biotinylated 26 mer Bak-BH3 peptide at 10 uM by HTRF-LANCE assay
[3] = molecular target: T1, Apoptosis regulator Bcl-2; test: Inhibition of GST fused Bcl-2 binding to biotinylated 26 mer Bak-BH3 peptide by HTRF-LANCE assay
[4] = molecular target: Bcl-2-like protein 1 (Bcl-xL) (Homo sapiens) (UniProt Q07817); test: Inhibition of GST fused Bcl-xL binding to biotinylated 26 mer Bak-BH3 peptide at 30 uM by HTRF-LANCE assay
[5] = molecular target: Bcl-2-like protein 1 (Bcl-xL) (Homo sapiens) (UniProt Q07817); test: Inhibition of GST fused Bcl-xL binding to biotinylated 16 mer Bak-BH3 peptide at 33 uM by HTRF-LANCE assay
[6] = molecular target: T1, Apoptosis regulator Bcl-2; conditions: 30 uM
Description: Inhibition of GST fused Bcl-2 binding to biotinylated 16 mer Bak-BH3 peptide at 30 uM by HTRF-LANCE assay

[7] = molecular target: Bcl-2-like protein 1 (Bcl-xL) (Homo sapiens) (UniProt Q07817); test: Inhibition of GST fused Bcl-xL binding to biotinylated 16 mer Bak-BH3 peptide at 30 uM by HTRF-LANCE assay
[8] = molecular target: T1, Apoptosis regulator Bcl-2; test: Inhibition of GST fused Bcl-2 binding to biotinylated 26 mer Bak-BH3 peptide at 10 uM by HTRF-LANCE assay

T1 sequence (P10415 whole entry, the tested form may be a part): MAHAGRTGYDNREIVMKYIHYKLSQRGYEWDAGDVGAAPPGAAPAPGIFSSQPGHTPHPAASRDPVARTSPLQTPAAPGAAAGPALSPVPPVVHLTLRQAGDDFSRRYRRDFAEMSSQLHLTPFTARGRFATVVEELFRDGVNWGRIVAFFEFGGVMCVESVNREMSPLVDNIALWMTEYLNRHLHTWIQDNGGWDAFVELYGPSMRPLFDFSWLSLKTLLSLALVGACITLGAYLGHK
Sequence of Bcl-2-like protein 1 (Bcl-xL) (Homo sapiens) (Q07817 whole entry, looked up, the tested form may be a part): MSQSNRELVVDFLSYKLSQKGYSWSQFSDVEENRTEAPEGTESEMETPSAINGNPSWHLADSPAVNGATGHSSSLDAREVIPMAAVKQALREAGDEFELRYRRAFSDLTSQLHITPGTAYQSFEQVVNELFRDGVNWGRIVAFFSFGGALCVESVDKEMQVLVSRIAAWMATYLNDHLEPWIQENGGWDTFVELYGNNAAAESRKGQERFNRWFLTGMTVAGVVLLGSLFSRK

Compound | IC50 [1] | IC50 [3] | also measured
Cc1cc(C(=O)N(c2ccccc2)c2ccccc2)nn1-c1ccccc1C(=O)N1Cc2ccccc2C[C@H]1C | 110 nM |  | 
CCN(CC)C(=O)c1nn(-c2ccccc2C(=O)N2Cc3ccccc3C[C@H]2CO)c(C)c1Br | 3670 nM | 17300 nM | inhibition [2]: 14%
CCCCN(CCCC)C(=O)c1nn(-c2ccccc2C(=O)N2Cc3ccccc3C[C@H]2CO)c(C)c1Cl | 100 nM | 780 nM | 
CCCCN(CCCC)C(=O)c1cc(C)n(-c2ccc(OCC(=O)c3ccccc3)cc2C(=O)N2CCc3ccccc3C2)n1 | 20 nM | 330 nM | 
Cc1cc(C(=O)N(c2ccccc2)c2ccccc2)nn1-c1ccccc1C(=O)N1Cc2ccccc2C[C@H]1CO | 190 nM |  | 
CCCCN(CCCC)C(=O)c1cc(C)n(-c2ccc(OCC(=O)O)cc2C(=O)N2CCc3ccccc3C2)n1 | 10 nM | 130 nM | 
Cc1cc(C(=O)N(c2ccccc2)c2ccccc2)nn1-c1ccccc1C(=O)N1Cc2ccccc2C[C@H]1CN(C)C | 150 nM |  | 
Cc1c(Cl)c(C(=O)N(c2ccccc2)c2ccccc2)nn1-c1ccccc1C(=O)N1Cc2ccccc2C[C@H]1CO | 50 nM | 480 nM | inhibition [4]: 29%
CCCCN(CCCC)C(=O)c1cc(C)n(-c2ccc(NC(=O)CSc3ccccc3)cc2C(=O)N2CCc3ccccc3C2)n1 |  | 600 nM | 
Cc1cc(C(=O)N(c2ccccc2)c2ccccc2)nn1-c1ccccc1C(=O)N1Cc2ccccc2C[C@H]1CN | 110 nM |  | 
CCCCN(CCCC)C(=O)c1nn(-c2ccc(NC(=O)Cc3ccccc3)cc2C(=O)N2CCc3ccccc3C2)c(C)c1Cl | 40 nM | 270 nM | 
COC(=O)C[C@@H]1Cc2ccccc2CN1C(=O)c1ccccc1-n1nc(C(=O)N(c2ccccc2)c2ccccc2)cc1C | 280 nM |  | 
CCCCN(CCCC)C(=O)c1cc(C)n(-c2ccc(NC(=O)COc3ccccc3)cc2C(=O)N2CCc3ccccc3C2)n1 |  | 510 nM | 
Cc1cc(C(=O)N(C)Cc2ccccc2)nn1-c1ccccc1C(=O)N1CCc2ccccc2C1 |  |  | Activity [1]: inactive
Cc1cc(C(=O)N(c2ccccc2)C2CCCCC2)nn1-c1ccccc1C(=O)N1CCc2ccccc2C1 | 1400 nM |  | 
CCCCN(CCCC)C(=O)c1nn(-c2ccc(NC(=O)COc3ccccc3)cc2C(=O)N2CCc3ccccc3C2)c(C)c1Cl | 40 nM | 130 nM | 
CCCCN(CCCC)C(=O)c1nn(-c2ccc(NS(=O)(=O)Cc3ccccc3)cc2C(=O)N2CCc3ccccc3C2)c(C)c1Cl |  |  | inhibition [2]: 19%
Cc1c(Cl)c(C(=O)N(c2ccccc2)c2ccccc2)nn1-c1ccccc1C(=O)N1Cc2ccccc2C[C@H]1CN | 30 nM | 100 nM | inhibition [4]: 28%
CCOC(=O)[C@@H]1Cc2ccccc2CN1C(=O)c1ccccc1-n1nc(C(=O)N(c2ccccc2)c2ccccc2)cc1C | 5610 nM |  | 
Cc1cc(C(=O)N(c2ccccc2)c2ccccc2)nn1-c1ccccc1C(=O)N1Cc2ccccc2C[C@H]1CNS(C)(=O)=O | 1050 nM |  | inhibition [5]: 40%
COC[C@@H]1Cc2ccccc2CN1C(=O)c1ccccc1-n1nc(C(=O)N(c2ccccc2)c2ccccc2)cc1C | 160 nM |  | 
Cc1cc(C(=O)N(c2ccccc2)c2ccccc2)nn1-c1ccccc1C(=O)N1Cc2ccccc2C[C@@H]1C |  |  | inhibition [6]: 27%; inhibition [7]: 4%
CC(=O)NC[C@@H]1Cc2ccccc2CN1C(=O)c1ccccc1-n1nc(C(=O)N(c2ccccc2)c2ccccc2)cc1C | 730 nM |  | 
CNC[C@@H]1Cc2ccccc2CN1C(=O)c1ccccc1-n1nc(C(=O)N(c2ccccc2)c2ccccc2)cc1C | 140 nM |  | 
Cc1c(Br)c(C(=O)N(c2ccccc2)c2ccccc2)nn1-c1ccccc1C(=O)N1Cc2ccccc2C[C@H]1CO | 40 nM | 210 nM | inhibition [4]: 9%
CCCCN(CCCC)C(=O)c1nn(-c2ccc(N)cc2C(=O)N2Cc3ccccc3C[C@H]2CN)c(C)c1Cl |  | 380 nM | 
Cc1cc(C(=O)Nc2ccccc2)nn1-c1ccccc1C(=O)N1CCc2ccccc2C1 | 50000 nM |  | 
Cc1c(Cl)c(C(=O)N(CC(F)(F)F)CC(F)(F)F)nn1-c1ccccc1C(=O)N1Cc2ccccc2C[C@H]1CO |  |  | inhibition [4]: 4%; inhibition [7]: 13%; inhibition [8]: 6%
Cc1cc(C(=O)N2CCc3ccccc3C2)nn1-c1ccccc1C(=O)N1CCc2ccccc2C1 | 1500 nM |  | 
CCCCN(CCCC)C(=O)c1nn(-c2ccccc2C(=O)N2Cc3ccccc3C[C@H]2CN)c(C)c1Cl | 20 nM | 160 nM | 
